In patent US12043602B2, “Fendiline derivatives” (The Board of Regents of the University of Texas System, priority 2019, dated 2024):
Several values for one entry are separate records, joined by “and”; a condition that tells them apart may be missing. Equal values may be shown once. Read-outs that look alike come from different tables or passages of the source.

Assays:
mGFP-K-RASG12V = mGFP-K-RASG12V (Homo sapiens (Human), UniProt P01116, G12V); test: K-Ras mislocalization assay (confocal microscopy, Manders coefficient); type: cell-based; set-up: key to Emax: Manders coefficient: fraction of mCherry-CAAX co-localizing with GFP-K-Ras; conditions: for IC50 / Emax: MDCK cells; for IC50: 48 h treatment, read-out: IC50 (μM), KRASG12V mislocalization; for Emax: maximal effect, Manders coefficient, 48 h
Protocol: Madine Darby Canine Kidney epithelial cells (MDCK) stably co-expressing mGFP-tagged full length oncogenic mutant K-Ras (GFP—K-RASG12V) or mGFP-LactC2 (peptide probe for phosphatidylserine) and mCherry-tagged to the amino acids 179-189 of H-RasC181S, C184S (mCherry-CAAX, localizes primarily to endomembranes) were grown in DMEM-high glucose/sodium pyruvate/10% FBS. The medium was supplemented with 1× Penicillin/Streptomycin for fluorescence microscopy assays, to avoid any microbial contamination from the test compounds added. KLE and Hec50 cells were maintained in DMEM-F-12 medium supplemented with 10% FBS. Hec-1A and Hec-1B cells were grown in McCoy's 5a medium supplemented with 10% FBS. ESS-1 cells were grown in RPMI 1640 medium supplemented with 20% FBS. MPanc96 cells were grown in DMEM supplemented with 10% FBS, MiaPaCa-2 cells in DMEM supplemented with 10% FBS and 2.5% horse serum and all other cell lines were grown in RPMI 1640 supplemented with 10% FBS. All cancer cell media were supplemented with ×Penicillin/Streptomycin. All cell lines were grown at 37° C. with 5% CO2.
MDCK co-expressing GFP—K-RASG12V or LactC2 and mCherry-CAAX were grown on coverslips, treated with 0.1% vehicle (DMSO) or various concentrations of drugs for 48 h, and fixed with 4% paraformaldehyde. The coverslips were mounted in mowiol and imaged by confocal microscopy (Nikon A1) using a 60× objective. Using ImageJ software v1.42q, images were converted to 8-bit, and a threshold to a control pixel of each image was set. As a measure of K-Ras/LactC2 mislocalization, the fraction of mCherry-CAAX co-localizing with mGFP-K-RASG12V was calculated using a Manders coefficient plugin downloaded from Wright Cell Image Facility. The fraction of mCherry-CAAX co-localizing with mGFP-RASG12V (Mander's coefficient) is proportional to K-Ras mislocalization.

[1] = test system: MDCK cells co-expressing GFP-K-RASG12V and mCherry-CAAX; test: Cytotoxicity in mislocalization screen (death of all cells in well); conditions: drug caused death of all cells in well at 30 μM

Compound	IC50 (mGFP-K-RASG12V)	Emax (mGFP-K-RASG12V)	Cytotoxic at 30 μM [1]	further results
COc1ccc([C@@H](C)N(CC=C(c2ccccc2)c2ccccc2)CCN2CCNCC2)cc1 [NY347, (R)-N-(1-(4-methoxyphenyl)ethyl)-3,3-diphenyl-N-(2-(piperazin-1-yl)ethyl)prop-2-en-1-amine]	1.3 µM	0.86 ± 0.02	Yes	Emax (mGFP-K-RASG12V; listed as 12e): 0.90; Cytotoxic at 30 μM ([1]; listed as 12e): cytotoxicity
CCOC(CCCN(CC=C(c1ccccc1)c1ccccc1)[C@H](C)c1ccc(OC)cc1)OCC [NY348, (R)-N-(3,3-diphenylallyl)-4,4-diethoxy-N-(1-(4-methoxyphenyl)ethyl)butan-1-amine]	5.47 µM	0.963	No	
C=CCN(CCN1CCN(C)CC1)[C@H](C)c1ccc(OC)cc1 [NY349, (R)-N-(1-(4-methoxyphenyl)ethyl)-N-(2-(4-methylpiperazin-1-yl)ethyl)prop-2-en-1-amine]	59.3 µM	0.76 ± 0.02	No	KRAS PM localization inhibition activity (in words) (mGFP-K-RASG12V): complete loss of in vitro activity
COc1ccc([C@@H](C)N(CC=C(c2ccccc2)c2ccccc2)CCN2CCN(C(C)=O)CC2)cc1 [NY350, (R)-1-(4-(2-((3,3-diphenylallyl)(1-(4-methoxyphenyl)ethyl)amino)ethyl)piperazin-1-yl)ethanone]		0.877	No	
COc1ccc([C@@H](C)N(CC=C(c2ccccc2)c2ccccc2)CCN2CCN(S(C)(=O)=O)CC2)cc1 [NY351, (R)-N-(1-(4-methoxyphenyl)ethyl)-N-(2-(4-(methylsulfonyl)piperazin-1-yl)ethyl)-3,3-diphenylprop-2-en-1-amine]	1.11 µM	0.851	No	
COc1ccc([C@@H](C)N(CC=C(c2ccccc2)c2ccccc2)CCN2CCN(C(=O)Nc3ccccc3)CC2)cc1 [NY352, (R)-4-(2-((3,3-diphenylallyl)(1-(4-methoxyphenyl)ethyl)amino)ethyl)-N-phenylpiperazine-1-carboxamide]	1.68 µM	0.920	Yes	
COc1ccc([C@@H](C)N(CC=C(c2ccccc2)c2ccccc2)CCN2CCN(C(=O)Oc3ccccc3)CC2)cc1 [NY353, (R)-phenyl 4-(2-((3,3-diphenylallyl)(1-(4-methoxyphenyl)ethyl)amino)ethyl) piperazine-1-carboxylate]	3.26 µM	0.920	No	
C#CCN1CCN(CCN(CC=C(c2ccccc2)c2ccccc2)[C@H](C)c2ccc(OC)cc2)CC1 [NY356, (R)-N-(1-(4-methoxyphenyl)ethyl)-3,3-diphenyl-N-(2-(4-(prop-2-ynyl)piperazin-1-yl)ethyl)prop-2-en-1-amine]	4.19 µM	0.886	No	
C=CC(=O)N1CCN(CCN(CC=C(c2ccccc2)c2ccccc2)[C@H](C)c2ccc(OC)cc2)CC1 [NY0357a, (R)-1-(4-(2-((3,3-diphenylallyl)(1-(4-methoxyphenyl)ethyl)amino)ethyl)piperazin-1-yl)prop-2-en-1-one]	2.55 µM	0.697	Yes	
CCN(CC)CCN(CC=C(c1ccccc1)c1ccccc1)[C@H](C)c1ccc(OC)cc1 [NY0358, (R)-N^1-(3,3-diphenylallyl)-N^2,N^2-diethyl-N^1-(1-(4-methoxyphenyl)ethyl)ethane-1,2-diamine]	1.15 µM and 1.2 µM	0.887	Yes	Emax (mGFP-K-RASG12V; listed as 12b): 0.89 ± 0.01
COc1ccccc1[C@@H](C)N(CC=C(c1ccccc1)c1ccccc1)CCN1CCN(C)CC1 [NY0366, (R)-N-(1-(2-methoxyphenyl)ethyl)-N-(2-(4-methylpiperazin-1-yl)ethyl)-3,3-diphenylprop-2-en-1-amine]	3.81 µM	0.861	Yes	IC50 (mGFP-K-RASG12V; listed as 15b): 3.8 µM; Emax (mGFP-K-RASG12V; listed as 15b): 0.86 ± 0.01
CN1CCN(CCN(CC=C(c2ccccc2)c2ccccc2)[C@@H]2CCc3ccccc32)CC1 [NY0369b, (R)-N-(3,3-diphenylallyl)-N-(2-(4-methylpiperazin-1-yl)ethyl)-2,3-dihydro-1H-inden-1-amine]	90.1 µM	0.866	Yes	
C[C@H](c1cccc(Cl)c1)N(CC=C(c1ccccc1)c1ccccc1)CCN1CCN(C)CC1 [NY0370b, (R)-N-(1-(3-chlorophenyl)ethyl)-N-(2-(4-methylpiperazin-1-yl)ethyl)-3,3-diphenylprop-2-en-1-amine]	11.2 µM	0.767	Yes	Emax (mGFP-K-RASG12V; listed as 15g): 0.77 ± 0.07
COc1ccc([C@@H](C)N(CC=C(c2ccccc2)c2ccccc2)CCN2CCN(CC(C)C)CC2)cc1 [NY0372, (R)-N-(2-(4-isobutylpiperazin-1-yl)ethyl)-N-(1-(4-methoxyphenyl)ethyl)-3,3-diphenylprop-2-en-1-amine]	16.4 µM	0.868	No	
CCN(CC=C(c1ccccc1)c1ccccc1)[C@H](C)c1ccc(OC)cc1 [NY0429, (R)-N-ethyl-N-(1-(4-methoxyphenyl)ethyl)-3,3-diphenylprop-2-en-1-amine]	10.6 µM	0.835	No	IC50 (mGFP-K-RASG12V; listed as 11b): 10.6 µM; Emax (mGFP-K-RASG12V; listed as 11b): 0.84 ± 0.02
CCN(CC=C(c1ccccc1)c1ccccc1)[C@@H](C)c1ccc(OC)cc1 [NY0431]	2.91 µM	0.756	No	
COc1ccc([C@H](C)N(CC=C(c2ccccc2)c2ccccc2)CCN(C)C)cc1 [NY0434]	4.69 µM	0.835	No	
COc1ccc([C@@H](C)N(CC=C(c2ccccc2)c2ccccc2)CCN(C)C)cc1 [NY0435, (R)-N^1-(3,3-diphenylallyl)-N^1-(1-(4-methoxyphenyl)ethyl)-N^2,N^2-dimethylethane-1,2-diamine]	11.2 µM	0.658	Yes	IC50 (mGFP-K-RASG12V; listed as 12a): 11.2 µM; Emax (mGFP-K-RASG12V; listed as 12a): 0.66 ± 0.01
COc1ccc([C@H](C)N(CC=C(c2ccccc2)c2ccccc2)CCN2CC2)cc1 [NY0436]	14 µM	0.716	No	
COc1ccc([C@@H](C)N(CC=C(c2ccccc2)c2ccccc2)CCCC=O)cc1 [NY0445, (R)-4-((3,3-diphenylallyl)(1-(4-methoxyphenyl)ethyl)amino)butanal]	2.02 µM	0.694	No	
COc1ccc([C@@H](C)N(CC=C(c2ccccc2)c2ccccc2)CCCCO)cc1 [NY0448, (R)-4-((3,3-diphenylallyl)(1-(4-methoxyphenyl)ethyl)amino)butan-1-ol]	12.7 µM	0.777	Yes	
COc1ccc([C@@H](C)N(CC=C(c2ccccc2)c2ccccc2)CCCCN2CCN(C)CC2)cc1 [NY0449, (R)-N-(3,3-diphenylallyl)-N-(1-(4-methoxyphenyl)ethyl)-4-(4-methylpiperazin-1-yl)butan-1-amine]		0.810	Yes	KRAS PM localization inhibition activity (in words) (mGFP-K-RASG12V): significantly decreased potency; Emax (mGFP-K-RASG12V; listed as 25): 0.81 ± 0.03
COc1cccc([C@@H](C)N(CC=C(c2ccccc2)c2ccccc2)CCN2CCN(C)CC2)c1 [NY0452, (R)-N-(1-(3-methoxyphenyl)ethyl)-N-(2-(4-methylpiperazin-1-yl)ethyl)-3,3-diphenylprop-2-en-1-amine]	2.81 µM	0.752	Yes	IC50 (mGFP-K-RASG12V; listed as 15c): 2.8 µM; Emax (mGFP-K-RASG12V; listed as 15c): 0.75 ± 0.04
